Laboratory results published in patent US10562914B2, “Imidazoles as histone demethylase inhibitors” (Istituto Europeo di Oncologia S.r.l., priority 2016, dated 2020).
Counter-ions that a name gives are not always drawn.

What was measured:
[1] = molecular target: T1, human recombinant KDM1A/CoREST protein (Homo sapiens, UniProt O60341); experiment: Assay of enzyme inhibition of KDM1A (LSD1), TR-FRET; format: biochemical; conditions: 0.25 nM KDM1A/CoREST, 50 nM H3K4 monomethylated peptide, 20 min at RT
T1 construct: made in house; host or cells: E. coli
Protocol: 2.1 Assay of Enzyme Inhibition of KDM1A (LSD1)
The intensity of the light emission is proportional to the level of biotinylated reaction product. The complex of human recombinant KDM1A/CoREST protein was produced in E. coli as separate proteins and co-purified as previously described.
Demethylase reaction was started by the addition of 50 nM histone H3K4 monomethylated.
The resulting mixture was incubated in the dark for 1 h at RT. Then, TR-FRET signal was read by a fluorimeter (Infinite® F200, Tecan, Männedorf, Swirzerland) (Excitation 320 nm, Emission 665 nm and 620 nm, delay time 50 μs, window time 100 μs).
The inhibitor concentrations ranged from 0.025 to 500 μM (serial 1:3 dilutions). The IC50 was calculated using GraphPad Software.

human leukemia NB4 cells = experiment: Cell growth, CellTiter-Fluor viability assay, NB4; format: cell-based; conditions: NB-4, 48 h incubation, read-out: IC50 against human leukemia NB4 cells
Excerpt: (§1) CellTiter-Flor® (Promega) is as a nonlytic, single-reagent-addition fluorescence assay that measures the relative number of living cells in a culture population after experimental manipulation. The CellTiter-Fluor™ Cell Viability Assay measures the conserved and constitutive protease activity within live cells and therefore acts as a marker for cell viability.
(§2) Human leukemia MV4-11 cells, (obtained from the Deutsche Sammlung von Mikroorganismen und Zellkulturen, ACC 102) or NB4 cells, (obtained from the Deutsche Sammlung von Mikroorganismen und Zellkulturen) in exponential growth, were incubated for 48 h with different concentrations of the inhibitors. After 48 h a volume of CellTiter-Fluor® Reagent equal to one fifth of volume of cell culture medium was added. The content was mixed and incubates for at least 90 min at 37° C. degree to obtain a stable signal. The fluorescence was recorded using an excitation wavelength of 360 nm and an emission at 535 nm. The IC50 was calculated using GraphPad Software.

[2] = test system: Human leukemia MV4-11 cells; experiment: Cell growth, CellTiter-Fluor viability assay, MV4-11; format: cell-based; conditions: 48 h incubation, read-out: IC50 against human leukemia MV4-11 cells
Excerpt: as §1, §2

IC50 [1] [µM]	IC50 (human leukemia NB4 cells) [µM]	SMILES	IC50 [2] [µM]
< 0.1	< 10	CCc1cn(CCOc2ccc(OC3CCNCC3)cc2)c(-c2cc3ccsc3n2C)n1 [Example 39, 5-[4-ethyl-1-[2-[4-(4-piperidyloxy)phenoxy]ethyl]imidazol-2-yl]-6-methyl-thieno[2,3-b]pyrrole]	–
< 0.1	< 20	CCc1cn(CCOc2ccc(OCC3CCNC3)cc2)c(-c2cc3sccc3n2C)n1 (stereo not shown) [Example 22, 5-[4-ethyl-1-[2-[4-(pyrrolidin-3-ylmethoxy)phenoxy]ethyl]imidazol-2-yl]-4-methyl-thieno[3,2-b]pyrrole hydrochloride]	< 10
< 0.1	–	Cn1c(-c2nc(-c3ccccc3)cn2CCCc2ccc(OC3CCNCC3)cc2)cc2sccc21 [Example 51, 4-methyl-5-[4-phenyl-1-[3-[4-(4-piperidyloxy)phenyl]propyl]imidazol-2-yl]thieno[3,2-b]pyrrole hydrochloride]	–
< 0.1	–	Cn1c(-c2ncc(C3CCC3)n2CCCc2ccc(OCC3CCNC3)cc2)cc2sccc21 (stereo not shown) [Example 60, 5-[5-cyclobutyl-1-[3-[4-(pyrrolidin-3-ylmethoxy)phenyl]propyl]imidazol-2-yl]-4-methyl-thieno[3,2-b]pyrrole]	–
< 1	–	CC(C)c1[nH]c(-c2cc3sccc3n2C)nc1-c1ccccc1 [Example 10, 5-(5-isopropyl-4-phenyl-1H-imidazol-2-yl)-4-methyl-thieno[3,2-b]pyrrole]	–
< 1	–	CCn1c(-c2nc(C3CCC3)c[nH]2)cc2sccc21 [Example 12, 5-(4-cyclobutyl-1H-imidazol-2-yl)-4-ethyl-thieno[3,2-b]pyrrole]	–
< 0.1	< 10	CCc1cnc(-c2cc3sccc3n2C)n1CCCc1ccc(OCC2CCNCC2)c(OCC2CCNCC2)c1 [Example 57, 5-[1-[3-[3,4-bis(4-piperidylmethoxy)phenyl]propyl]-5-ethyl-imidazol-2-yl]-4-methyl-thieno[3,2-b]pyrrole dihydrochloride]	–
< 0.1	< 10	Cn1c(-c2ncc(C3CCC3)n2CCCc2ccc(OC3CCNCC3)cc2)cc2sccc21 [Example 50, 5-[5-cyclobutyl-1-[3-[4-(4-piperidyloxy)phenyl]propyl]imidazol-2-yl]-4-methyl-thieno[3,2-b]pyrrole]	–
< 0.1	–	CCc1cnc(-c2cc3sccc3n2C)n1CCOc1cccc(OC2CCCNCC2)c1 (stereo not shown) [Example 35, 5-[1-[2-[3-(azepan-4-yloxy)phenoxy]ethyl]-5-ethyl-imidazol-2-yl]-4-methyl-thieno[3,2-b]pyrrole hydrochloride]	–
< 0.1	< 10	CCCc1c(-c2ccccc2)nc(-c2cc3sccc3n2C)n1CCOc1ccc(OC2CCNCC2)cc1 [Example 41, 4-methyl-5-[4-phenyl-1-[2-[4-(4-piperidyloxy)phenoxy]ethyl]-5-propyl-imidazol-2-yl]thieno[3,2-b]pyrrole]	–
< 0.1	–	CCc1cn(CCCc2ccc(OCC3CCNCC3)c(OCC3CCNCC3)c2)c(-c2cc3sccc3n2C)n1 [Example 52, 5-[1-[3-[3,4-bis(4-piperidylmethoxy)phenyl]propyl]-4-ethyl-imidazol-2-yl]-4-methyl-thieno[3,2-b]pyrrole dihydrochloride]	–
< 0.1	< 10	CCc1c(-c2ccccc2)nc(-c2cc3sccc3n2C)n1CCCc1ccc(OC2CCNCC2)cc1 [Example 46, 5-[5-ethyl-4-phenyl-1-[3-[4-(4-piperidyloxy)phenyl]propyl]imidazol-2-yl]-4-methyl-thieno[3,2-b]pyrrole hydrochloride]	–
< 0.1	–	CCc1cn(CCc2ccc(OC3CCNCC3)cc2)c(-c2cc3sccc3n2C)n1 [Example 58, 5-[4-ethyl-1-[2-[4-(4-piperidyloxy)phenyl]ethyl]imidazol-2-yl]-4-methyl-thieno[3,2-b]pyrrole]	–
< 0.1	–	CCCc1cnc(-c2cc3sccc3n2C)n1CCOc1ccc(OC2CCNCC2)cc1 [Example 54, 4-methyl-5-[1-[2-[4-(4-piperidyloxy)phenoxy]ethyl]-5-propyl-imidazol-2-yl]thieno[3,2-b]pyrrole]	–
< 0.1	< 10	CCc1nc(-c2cc3sccc3n2C)n(CCCc2ccc(OC3CCNCC3)cc2)c1-c1ccccc1 [Example 47, 5-[4-ethyl-5-phenyl-1-[3-[4-(4-piperidyloxy)phenyl]propyl]imidazol-2-yl]-4-methyl-thieno[3,2-b]pyrrole hydrochloride]	–
< 0.1	< 10	CCc1cnc(-c2cc3sccc3n2C)n1CCCc1ccc(OC2CCCNCC2)cc1 (stereo not shown) [Example 45, 5-[1-[3-[4-(azepan-4-yloxy)phenyl]propyl]-5-ethyl-imidazol-2-yl]-4-methyl-thieno[3,2-b]pyrrole hydrochloride]	–
< 0.1	< 10	CC(C)c1nc(-c2cc3sccc3n2C)n(CCOc2ccc(OC3CCNCC3)cc2)c1-c1ccccc1 [Example 48, 5-[4-isopropyl-5-phenyl-1-[2-[4-(4-piperidyloxy)phenoxy]ethyl]imidazol-2-yl]-4-methyl-thieno[3,2-b]pyrrole]	–
< 0.1	< 10	CCc1cnc(-c2cc3sccc3n2C)n1CCCc1ccc(OCC2CCNCC2)cc1 [Example 43, 5-[5-ethyl-1-[3-[4-(4-piperidylmethoxy)phenyl]propyl]imidazol-2-yl]-4-methyl-thieno[3,2-b]pyrrole]	–
< 1	–	CCc1[nH]c(-c2cc3sccc3n2C)nc1-c1ccccc1 [Example 9, 5-(5-ethyl-4-phenyl-1H-imidazol-2-yl)-4-methyl-thieno[3,2-b]pyrrole]	–
< 0.1	< 10	CCCc1nc(-c2cc3sccc3n2C)n(CCOc2ccc(OC3CCNCC3)cc2)c1-c1ccccc1 [Example 40, 4-methyl-5-[5-phenyl-1-[2-[4-(4-piperidyloxy)phenoxy]ethyl]-4-propyl-imidazol-2-yl]thieno[3,2-b]pyrrole hydrochloride]	–
< 0.1	–	Cn1c(-c2ncc(C3CCC3)n2CCOc2ccc(OC3CCCNCC3)cc2)cc2sccc21 (stereo not shown) [Example 37, 5-[1-[2-[4-(azepan-4-yloxy)phenoxy]ethyl]-5-cyclobutyl-imidazol-2-yl]-4-methyl-thieno[3,2-b]pyrrole]	–
< 0.1	–	Cn1c(-c2ncc(C3CCC3)n2CCCc2ccc(OC3CCCNCC3)cc2)cc2sccc21 (stereo not shown) [Example 62, 5-[1-[3-[4-(azepan-4-yloxy)phenyl]propyl]-5-cyclobutyl-imidazol-2-yl]-4-methyl-thieno[3,2-b]pyrrole hydrochloride]	–
< 0.1	–	CCc1cn(CCOc2cccc(OC3CCCNCC3)c2)c(-c2cc3sccc3n2C)n1 (stereo not shown) [Example 34, 5-[1-[2-[3-(azepan-4-yloxy)phenoxy]ethyl]-4-ethyl-imidazol-2-yl]-4-methyl-thieno[3,2-b]pyrrole hydrochloride]	–

SMILES	IC50 [1] [µM]	IC50 (human leukemia NB4 cells) [µM]	IC50 [2] [µM]
CCc1cn(CCCc2ccc(OC3CCCNCC3)cc2)c(-c2cc3sccc3n2C)n1 (stereo not shown) [Example 44, 5-[1-[3-[4-(azepan-4-yloxy)phenyl]propyl]-4-ethyl-imidazol-2-yl]-4-methyl-thieno[3,2-b]pyrrole hydrochloride]	–	< 10	–
CCc1cn(CCCc2ccc(OCC3CCNCC3)cc2)c(-c2cc3sccc3n2C)n1 [Example 42, 5-[4-ethyl-1-[3-[4-(4-piperidylmethoxy)phenyl]propyl]imidazol-2-yl]-4-methyl-thieno[3,2-b]pyrrole hydrochloride]	–	< 10	–
CCc1cn(CCCc2ccc(OC3CCNCC3)cc2)c(-c2cc3sccc3n2C)n1 [Example 27, 5-[4-ethyl-1-[3-[4-(4-piperidyloxy)phenyl]propyl]imidazol-2-yl]-4-methyl-thieno[3,2-b]pyrrole hydrochloride]	–	< 20	< 10
Cn1c(-c2nc(C3CCC3)cn2CCOc2ccc(OC3CCNCC3)cc2)cc2sccc21 [Example 29, 5-[4-cyclobutyl-1-[2-[4-(4-piperidyloxy)phenoxy]ethyl]imidazol-2-yl]-4-methyl-thieno[3,2-b]pyrrole hydrochloride]	–	< 20	< 10
CCc1cn(CCOc2ccc(OC3CCCNCC3)cc2)c(-c2cc3sccc3n2C)n1 (stereo not shown) [Example 25, 5-[1-[2-[4-(azepan-4-yloxy)phenoxy]ethyl]-4-ethyl-imidazol-2-yl]-4-methyl-thieno[3,2-b]pyrrole hydrochloride]	–	< 20	< 10
Cn1c(-c2nc(C3CCC3)cn2CCCc2ccc(OC3CCNCC3)cc2)cc2sccc21 [Example 49, 5-[4-cyclobutyl-1-[3-[4-(4-piperidyloxy)phenyl]propyl]imidazol-2-yl]-4-methyl-thieno[3,2-b]pyrrole hydrochloride]	–	< 10	–
CCc1cn(CCOc2ccc(OC3CCNCC3)cc2)c(-c2cc3sccc3n2C)n1 [Example 20, 5-[4-ethyl-1-[2-[4-(4-piperidyloxy)phenoxy]ethyl]imidazol-2-yl]-4-methyl-thieno[3,2-b]pyrrole hydrochloride]	–	< 20	< 10
